Laboratory results from US8722849B2, “Polypeptides” (Novo Nordisk A/S, priority 2011, dated 2014).
Starred links: 1 amine or outer side, 2 acyl side, 3 side chain; linkers in the order of their positions; H or OH if unused. Positions of bridges follow the written chain, without caps; N, C: chain ends. Residues, ends and D or L forms follow the SMILES beside them. *: point of attachment. C20 diacid = O=C(O)CCCCCCCCCCCCCCCCCCC(=O)*; C18 diacid = O=C(O)CCCCCCCCCCCCCCCCC(=O)*; γGlu = O=C(O)[C@H](CCC(=O)[*:2])N[*:1]

What was measured:
[1] = Assay (IX) pK, determination of T½ in mini-pig; assay type: in vivo, Göttingen mini-pigs; conditions: male, Göttingen, iv, 2 nmol/kg; minipig; plasma terminal half-life
[2] = Assay (III) ThT fibrillation assay for physical stability; assay type: physicochemical
Procedure, shortened: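 Freshly prepared formulations, pH-adjusted, with 1 μM ThT; four or eight replicates incubated at 37 °C under 960 rpm orbital shaking. Fluorescence (ex 444/em 485 nm) read every 20 min; […]. Peptide concentration measured by RP-HPLC before and after the run.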

food intake = assay: Assay (I) efficacy testing on appetite (food intake), ad libitum fed rat model; assay type: in vivo, Sprague Dawley (SD) rats; conditions: 3 nmol/kg
Procedure, shortened: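 Food consumption was logged per animal every hour up to 7 h and again at 24 h (occasionally 48 h) after a single 0.01–3 mg/kg dose, given sc, po or ip at dark-phase onset. Ad libitum fed SD rats, 200–250 g, kept on inverted light/dark cycle; vehicle group included, outliers removed by Grubbs test.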

Row | half-life [1] | ThT pH 4.0 lag time (h) ([2]; ThT fibrillation assay) | ThT pH 4.0 lag time ([2]; Table 8) | ThT pH 4.0 lag time ([2]; Table 9) | ThT pH 4.0 lag time ([2]; ThT fibrillation assay) | Compound | Food intake reduction 0-24 h 3 nmol/kg (%) (food intake) | Food intake reduction 24-48 h 3 nmol/kg (%) (food intake)
1 | 90 h | 12.3 h |  |  |  | CC[C@H](C)[C@H](NC(=O)[C@@H]1CCCN1C(=O)CNC(=O)[C@H](Cc1ccccc1)NC(=O)[C@H](CC(N)=O)NC(=O)[C@H](CC(N)=O)NC(=O)[C@H](CO)NC(=O)[C@H](CO)NC(=O)[C@H](Cc1c[nH]cn1)NC(=O)[C@H](Cc1c[nH]cn1)NC(=O)[C@H](CC(C)C)NC(=O)[C@H](Cc1ccccc1)NC(=O)[C@H](CCC(=O)O)NC(=O)[C@H](C)NC(=O)[C@H](CC(C)C)NC(=O)[C@H](CCCNC(=N)N)NC(=O)[C@H](CCC(N)=O)NC(=O)[C@@H](NC(=O)[C@H](C)NC(=O)[C@@H]1CSSC[C@H](NC(=O)[C@H](CCCCN)NC(=O)CC[C@H](NC(=O)CCCCCCCCCCCCCCCCCCC(=O)O)C(=O)O)C(=O)N[C@@H](CC(N)=O)C(=O)N[C@@H]([C@@H](C)O)C(=O)N[C@@H](C)C(=O)N[C@@H]([C@@H](C)O)C(=O)N1)[C@@H](C)O)C(=O)N[C@@H](CC(C)C)C(=O)N1CCC[C@H]1C(=O)N1CCC[C@H]1C(=O)N[C@H](C(=O)N[C@@H](CC(N)=O)C(=O)N[C@H](C(=O)NCC(=O)N[C@@H](CO)C(=O)N[C@@H](CC(N)=O)C(=O)N[C@H](C(=O)N[C@@H](Cc1ccc(O)cc1)C(N)=O)[C@@H](C)O)C(C)C)[C@@H](C)O [Example 27, N-alpha-[(S)-4-Carboxy-4-(19-carboxynonadecanoylamino)butyryl]-[Glu14,His17]-pramlintide] ({C20 diacid-γGlu}-KCNTATCATQRLAEFLHHSSNNFGPILPPTNVGSNTY-NH2; disulfide 2-7 (inferred)) | 56% | 53%
2 | 98 h | >45 h | >45 h | >45 h | >45 h | CC[C@H](C)[C@H](NC(=O)[C@@H]1CCCN1C(=O)CNC(=O)[C@H](Cc1ccccc1)NC(=O)[C@H](CC(N)=O)NC(=O)[C@H](CC(N)=O)NC(=O)[C@H](CO)NC(=O)[C@H](CO)NC(=O)[C@H](Cc1c[nH]cn1)NC(=O)[C@H](CCCNC(=N)N)NC(=O)[C@H](CC(C)C)NC(=O)[C@H](Cc1ccccc1)NC(=O)[C@H](CCC(=O)O)NC(=O)[C@H](C)NC(=O)[C@H](CC(C)C)NC(=O)[C@H](CCCNC(=N)N)NC(=O)[C@H](CCC(N)=O)NC(=O)[C@@H](NC(=O)[C@H](C)NC(=O)[C@@H]1CSSC[C@H](NC(=O)[C@H](CCCCN)NC(=O)CC[C@H](NC(=O)CCCCCCCCCCCCCCCCCCC(=O)O)C(=O)O)C(=O)N[C@@H](CC(N)=O)C(=O)N[C@@H]([C@@H](C)O)C(=O)N[C@@H](C)C(=O)N[C@@H]([C@@H](C)O)C(=O)N1)[C@@H](C)O)C(=O)N[C@@H](CC(C)C)C(=O)N1CCC[C@H]1C(=O)N1CCC[C@H]1C(=O)N[C@H](C(=O)N[C@@H](CC(N)=O)C(=O)N[C@H](C(=O)NCC(=O)N[C@@H](CO)C(=O)N[C@@H](CC(N)=O)C(=O)N[C@H](C(=O)N1CCC[C@H]1C(N)=O)[C@@H](C)O)C(C)C)[C@@H](C)O [Example 53, N-alpha-[(S)-4-Carboxy-4-(19-carboxynonadecanoylamino)butyryl]-[Glu14,Arg17,Pro37]-pramlintide] | 40% | 28%
3 | 59 h | >45 h | >45 h | >45 h | >45 h | CC[C@H](C)[C@H](NC(=O)[C@@H]1CCCN1C(=O)CNC(=O)[C@H](Cc1ccccc1)NC(=O)[C@H](CC(N)=O)NC(=O)[C@H](CC(N)=O)NC(=O)[C@H](CO)NC(=O)[C@H](CO)NC(=O)[C@H](Cc1c[nH]cn1)NC(=O)[C@H](Cc1c[nH]cn1)NC(=O)[C@H](CC(C)C)NC(=O)[C@H](Cc1ccccc1)NC(=O)[C@H](CCC(=O)O)NC(=O)[C@H](C)NC(=O)[C@H](CC(C)C)NC(=O)[C@H](CCCNC(=N)N)NC(=O)[C@H](CCC(N)=O)NC(=O)[C@@H](NC(=O)[C@H](C)NC(=O)[C@@H]1CSSC[C@H](NC(=O)[C@H](CCCCN)NC(=O)CC[C@H](NC(=O)CCCCCCCCCCCCCCCCC(=O)O)C(=O)O)C(=O)N[C@@H](CC(N)=O)C(=O)N[C@@H]([C@@H](C)O)C(=O)N[C@@H](C)C(=O)N[C@@H]([C@@H](C)O)C(=O)N1)[C@@H](C)O)C(=O)N[C@@H](CC(C)C)C(=O)N1CCC[C@H]1C(=O)N1CCC[C@H]1C(=O)N[C@H](C(=O)N[C@@H](CC(N)=O)C(=O)N[C@H](C(=O)NCC(=O)N[C@@H](CO)C(=O)N[C@@H](Cc1c[nH]cn1)C(=O)N[C@H](C(=O)N[C@@H](Cc1ccc(O)cc1)C(N)=O)[C@@H](C)O)C(C)C)[C@@H](C)O [Example 59, N-alpha-[(S)-4-Carboxy-4-(17-carboxyheptadecanoylamino)butyryl]-[Glu14,His17,His35]-pramlintide] ({C18 diacid-γGlu}-KCNTATCATQRLAEFLHHSSNNFGPILPPTNVGSHTY-NH2; disulfide 2-7 (inferred)) | 59% | 27%
4 | 107 h | >45 h | >45 h | >45 h | >45 h | CC[C@H](C)[C@H](NC(=O)[C@@H]1CCCN1C(=O)CNC(=O)[C@H](Cc1ccccc1)NC(=O)[C@H](CC(N)=O)NC(=O)[C@H](CC(N)=O)NC(=O)[C@H](CO)NC(=O)[C@H](CO)NC(=O)[C@H](Cc1c[nH]cn1)NC(=O)[C@H](Cc1c[nH]cn1)NC(=O)[C@H](CC(C)C)NC(=O)[C@H](Cc1ccccc1)NC(=O)[C@H](CCC(=O)O)NC(=O)[C@H](C)NC(=O)[C@H](CC(C)C)NC(=O)[C@H](CCCNC(=N)N)NC(=O)[C@H](CCC(N)=O)NC(=O)[C@@H](NC(=O)[C@H](C)NC(=O)[C@@H]1CSSC[C@H](NC(=O)[C@H](CCCNC(=N)N)NC(=O)CC[C@H](NC(=O)CCCCCCCCCCCCCCCCCCC(=O)O)C(=O)O)C(=O)N[C@@H](CC(N)=O)C(=O)N[C@@H]([C@@H](C)O)C(=O)N[C@@H](C)C(=O)N[C@@H]([C@@H](C)O)C(=O)N1)[C@@H](C)O)C(=O)N[C@@H](CC(C)C)C(=O)N1CCC[C@H]1C(=O)N1CCC[C@H]1C(=O)N[C@H](C(=O)N[C@@H](CC(N)=O)C(=O)N[C@H](C(=O)NCC(=O)N[C@@H](CO)C(=O)N[C@@H](CC(N)=O)C(=O)N[C@H](C(=O)N1CCC[C@H]1C(N)=O)[C@@H](C)O)C(C)C)[C@@H](C)O [Example 96, N-alpha-[(S)-4-Carboxy-4-(19-carboxynonadecanoylamino)butyryl]-[Arg1,Glu14,His17,Pro37]-pramlintide] ({C20 diacid-γGlu}-RCNTATCATQRLAEFLHHSSNNFGPILPPTNVGSNTP-NH2; disulfide 2-7 (inferred)) | 69% | 89%
